Results on two molecules are retold here after patent US20050281867A1, “Nitric oxide inducing agents” (priority 2003, published 2005).

The test system of assay [1] is nitric oxide. Briefly: Nitric oxide production / systemic NO levels in treated patients. It counts as in vivo, human. On the procedure:
Moreover, it was observed that a few patients who received treatment with an agent of the instant invention began to develop resistance due to down-regulation of the insulin receptor. This effect was reversed by co-administering low dose aspirin (15 mg) with the agent. Upon co-administration, the production of nitric oxide returned to normal within 30 minutes of treatment. While the instant agents work through the insulin receptor, aspirin appeared to be insulin-independent and was nitric oxide mediated. Accordingly, one embodiment of the instant methods is the co-administration, i.e., simultaneous or sequential, of low dose aspirin (e.g., ranging from 5-100 mg) with an agent of the instant invention. […] Expression of maspin, a serine protease inhibitor (serpin) known to be a potent anticancer protein, is severely impaired in breast cancer tissue. […] Similarly, production of alpha interferon-a, a widely used anticancer cytokine noted for its antiproliferative and anticancer property, is severely impaired in both malignant breast cancer tissue and non-malignant neutrophils in breast cancer. As with maspin, increases in nitric oxide levels increased production of alpha-interferon to normal ranges. By administering an agent of the instant invention, the auto immunity that is T-cell induced is improved through the neutrophils.

Assay [2] deals with wide variety of cancers. Description: Topical treatment of cancer patients, overall statements. The format is in vivo, human. The text has this: A total of 8,125 patients with different kinds of cancer participated in this study. These patients were divided into two groups. Blood samples were collected from 80 patients designated as Group I. These patients included 45 males between 20-65 years old, and 35 females between 25-55 years old. These patients were newly diagnosed patients with cancer who at the time of blood donation had not taken any medicine at least for 14 days and had not yet undergone any treatment of cancer including radiation or chemotherapy but opted for surgery. None of the patients had overt diabetes mellitus, systemic hypertension or suffered coronary artery disease at presentation. None of these patients had any other diagnosed life threatening condition.
Two categories of patients were included in Group II. The first category included 6,705 patients who had previously undergone all available cancer treatments including surgery, radiation and chemotherapy. At the time of participation in the study these patients had exhausted all therapeutic options and were under the care of private physicians and family members in their home. […] At the time of the participation in the study all patients, in the Group II in the second category had stopped taking treatments for cancer, such as chemotherapy and radiation, for at least 2 months. The diagnostic procedures and condition of the patients at presentation are described in Table 1. All institutionalized patients in group II were excluded from the study to avoid ambiguity. As in the case of Group I the patients with any other life threatening conditions or severe infection were also excluded from this group.
A control group of 150 patients were selected randomly from the Group II patients. […] Since the effect of the agents of the instant invention on the neutralization of IANOS antibody in vivo in cancer patients (responders) could be noticed by immunoblot technique (end-point) in 7 days, the patients in the placebo group received the vehicle for 7 days; the neutralization of the antibody and nitric oxide synthesis were determined. […]

Assay [3] concerns insulin-activated nitric oxide synthase (IANOS). Briefly: Assay of IANOS of human erythrocytes. It counts as biochemical. On the procedure:
Both biologic and non-biologic materials for were screened for their ability to activate human erythrocytes IANOS. […] The protein was purified to homogeneity from an aqueous extract (pH 7.4 buffer) by the combination of DEAE cellulose chromatography and SEPHADEX® gel filtration techniques.
Insulin-activated nitric oxide synthase (IANOS) activity of the erythrocyte suspension was carried out by determining the conversion of oxyhemoglobin to methemoglobin using standard methods. Purification of insulin activated nitric oxide synthase (from human erythrocyte membranes) was carried out by DEAE cellulose chromatography.

Assay [4] concerns maspin and alpha interferon-a. Description: Maspin and alpha interferon in breast cancer tissue and neutrophils of treated subjects. It counts as in vivo, human. The conditions noted are these: malignant breast cancer tissue and non-malignant neutrophils in breast cancer. The text has this:
Expression of maspin, a serine protease inhibitor (serpin) known to be a potent anticancer protein, is severely impaired in breast cancer tissue. […] Similarly, production of alpha interferon-a, a widely used anticancer cytokine noted for its antiproliferative and anticancer property, is severely impaired in both malignant breast cancer tissue and non-malignant neutrophils in breast cancer. As with maspin, increases in nitric oxide levels increased production of alpha-interferon to normal ranges. By administering an agent of the instant invention, the auto immunity that is T-cell induced is improved through the neutrophils.

`CC(=O)Oc1ccccc1C(=O)O` [aspirin, reference compound]: the “time until production of nitric oxide returned to normal” value in assay [1] (low dose aspirin (15 mg) co-administered with the agent, patients who developed resistance (insulin receptor down-regulation)) is no more than 30 min.

In the case of insulin, in assay [1] (after administration), the “systemic NO levels” value is given as “increase”. The “cancers in which particularly effective” value in assay [2] (non-Hodgkin's lymphoma, brain cancer, breast cancer with mastectomy, lung cancer (non-small cell)) is “particularly effective”. In addition, the “comparative effect of both agents” value in assay [2] (pancreatic cancer and bone cancer) is recorded as “equally effective”. The “effect against a wide variety of cancers” value in assay [2] (topical, cancer patients, as shown in Table 1) is given as “effective”. In assay [3], the “activation of erythrocyte IANOS” value is listed as “potent activator”. Further, in assay [4], the alpha interferon-a result is on record as “increase” and the maspin entry is recorded as “increase”.
